Here are results for 7 compounds from PubChem BioAssay (NCI).

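Step 1: Grow cells in 96-well plates. Step 2: Expose to compound for 48 hours at 5 concentrations. Step 3: Interpolate endpoints linearly; if unreached, use highest concentration. TGI denotes the concentration required for complete inhibition of growth.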

Test systems include NCI-H226 lung; SNB-19 CNS; MDA-MB-435; TK-10 renal; SR leukemia; LOX IMVI melanoma; NCI-H23 lung; SNB-75 CNS; OVCAR-4 ovarian; HCT-15 colon; IGROV1 ovarian; HCC-2998 colon; UACC-257 melanoma; CCRF-CEM leukemia; HL-60(TB) leukemia; UACC-62 melanoma; RXF 393 renal; SK-MEL-28 melanoma; EKVX NSCLC; NCI-H460 lung.
Common to all, as to experiment: DTP human tumour cell line panel, 48 h

A word on the TGI: it is the concentration giving total growth inhibition. A low value points to greater sensitivity of the cells. In the case of `Cc1cc2nc(C=C(C(F)(F)F)C(F)(F)F)sc2cc1C`, the TGI is 6.79 µM in the test on NCI-H226 lung; 9.89 µM with SNB-19 CNS; 7.07 µM in the test with MDA-MB-435; 5.91 µM in the test with TK-10 renal; 13.2 µM in the test on SR leukemia; 4.99 µM with LOX IMVI melanoma. The TGI in the test on NCI-H23 lung stood at 3.5 µM; in the test with SNB-75 CNS, 10.3 µM; with OVCAR-4 ovarian it was 14.9 µM; in the test with HCT-15 colon, 8.91 µM; in the test with IGROV1 ovarian it was 7.78 µM; in the test with HCC-2998 colon, 8.36 µM. The TGI in the test on UACC-257 melanoma is 13.6 µM; with CCRF-CEM leukemia it was more than 100 µM; in the test on HL-60(TB) leukemia, 3.86 µM; in the test on UACC-62 melanoma, 4.98 µM; with RXF 393 renal, 3.68 µM; in the test with SK-MEL-28 melanoma, 14.5 µM. The figures for the TGI in the test on EKVX NSCLC and in the test with NCI-H460 lung were 7.27 µM and 16 µM, respectively.

In the case of `CCC/C(Cl)=N/OC(=O)Nc1cc(C(F)(F)F)ccc1OC`, the TGI is 30.8 µM in the test with NCI-H226 lung; 31.5 µM with SNB-19 CNS; 26.3 µM in the test with MDA-MB-435; 32.5 µM in the test with TK-10 renal; 13.5 µM in the test with SR leukemia; 16.2 µM in the test on LOX IMVI melanoma. For the same compound, the TGI was found to be 37.2 µM in the test on NCI-H23 lung; 28.5 µM in the test with SNB-75 CNS; 9.75 µM with OVCAR-4 ovarian; 16.6 µM in the test with HCT-15 colon; 30.7 µM in the test with IGROV1 ovarian; 30.6 µM in the test with HCC-2998 colon. Moreover, the TGI in the test on UACC-257 melanoma is 30.9 µM; in the test with CCRF-CEM leukemia it was more than 20.7 µM; with HL-60(TB) leukemia it was more than 100 µM; in the test with UACC-62 melanoma, 28.8 µM; in the test on RXF 393 renal, 18.3 µM; in the test on SK-MEL-28 melanoma, 28.3 µM. Moreover, the TGI with EKVX NSCLC stood at 19.9 µM; with NCI-H460 lung, 36.5 µM.

As for `C=CCC1(Sc2ccccn2)Sc2ccc3ccccc3c2-c2c(ccc3ccccc23)S1`, the TGI with NCI-H226 lung, with SNB-19 CNS, in the test with MDA-MB-435, in the test on TK-10 renal, in the test on SR leukemia and in the test on LOX IMVI melanoma was more than 100 µM throughout. The TGI with NCI-H23 lung, in the test with SNB-75 CNS, with OVCAR-4 ovarian, with HCT-15 colon, in the test on IGROV1 ovarian and in the test with HCC-2998 colon was more than 100 µM in each case. Further, the TGI in the test with UACC-257 melanoma, in the test on CCRF-CEM leukemia, in the test with HL-60(TB) leukemia, with UACC-62 melanoma, in the test on RXF 393 renal and with SK-MEL-28 melanoma was more than 100 µM throughout. Besides, the TGI with EKVX NSCLC and in the test with NCI-H460 lung was more than 100 µM each time.

Turning to `Cc1c2c(nc3ccccc13)C(=O)c1cccnc1C2=O`, the TGI in the test with NCI-H226 lung is more than 100 µM; in the test on SNB-19 CNS, 92.3 µM; in the test with MDA-MB-435 it was 3.2 µM; with TK-10 renal, more than 100 µM; in the test on SR leukemia it was 65.6 µM; with LOX IMVI melanoma, 35.2 µM. The TGI in the test with NCI-H23 lung is 73.1 µM; in the test with SNB-75 CNS it was 91.7 µM; in the test on OVCAR-4 ovarian, more than 100 µM; in the test with HCT-15 colon, more than 100 µM; in the test with IGROV1 ovarian, more than 100 µM; in the test with HCC-2998 colon, more than 100 µM. The TGI was 27.2 µM in the test with UACC-257 melanoma; more than 100 µM with CCRF-CEM leukemia; 41.4 µM with HL-60(TB) leukemia; 10.1 µM with UACC-62 melanoma; more than 100 µM with RXF 393 renal; 94.7 µM with SK-MEL-28 melanoma. Besides, the TGI in the test with EKVX NSCLC worked out at 88 µM; with NCI-H460 lung it was 13.1 µM.

`Cn1c(=O)c2nc3c(=O)n(C)c(=O)n(CC(N)=O)c3nc2n(C)c1=O`: the TGI with NCI-H226 lung, with SNB-19 CNS, in the test with MDA-MB-435, in the test with TK-10 renal, with SR leukemia and with LOX IMVI melanoma was more than 100 µM each time. Also, the TGI in the test with NCI-H23 lung, in the test with SNB-75 CNS, with OVCAR-4 ovarian, in the test on HCT-15 colon, in the test on IGROV1 ovarian and in the test on HCC-2998 colon was more than 100 µM throughout. Moreover, the TGI in the test with UACC-257 melanoma, in the test with CCRF-CEM leukemia, with HL-60(TB) leukemia, in the test on UACC-62 melanoma, in the test with RXF 393 renal and in the test with SK-MEL-28 melanoma was more than 100 µM in each case. Further, the TGI with EKVX NSCLC and in the test on NCI-H460 lung was more than 100 µM throughout.

Take `O=C(O)c1ccccc1CC1Cc2cc3c(cc2C1)CCC3`: the TGI in the test on NCI-H226 lung, with SNB-19 CNS, with MDA-MB-435, in the test with TK-10 renal, in the test on SR leukemia and in the test on LOX IMVI melanoma was more than 100 µM each time. The TGI with NCI-H23 lung, in the test with SNB-75 CNS, in the test on OVCAR-4 ovarian, in the test on HCT-15 colon, in the test with IGROV1 ovarian and with HCC-2998 colon was more than 100 µM throughout. Besides, the TGI in the test on UACC-257 melanoma, in the test with CCRF-CEM leukemia, in the test with HL-60(TB) leukemia, in the test with UACC-62 melanoma, in the test with RXF 393 renal and in the test on SK-MEL-28 melanoma was more than 100 µM throughout. Moreover, the TGI with EKVX NSCLC and with NCI-H460 lung was more than 100 µM each time.

As for `N#CC(C#N)=C/C=C/c1c(Cl)cccc1Cl`, the TGI in the test on NCI-H226 lung is 7.05 µM; with SNB-19 CNS it was more than 10 µM; in the test with MDA-MB-435, 4.59 µM; in the test with TK-10 renal, 6.24 µM; with SR leukemia it was more than 10 µM; in the test with LOX IMVI melanoma it was 3.36 µM. In addition, the TGI with NCI-H23 lung is 2.87 µM; with SNB-75 CNS, more than 10 µM; in the test with OVCAR-4 ovarian, 3.49 µM; in the test with HCT-15 colon it was 4.01 µM; in the test on IGROV1 ovarian it was 4.27 µM; with HCC-2998 colon, 3.34 µM. In addition, the TGI was 2.99 µM in the test with UACC-257 melanoma; more than 10 µM with CCRF-CEM leukemia; 4.04 µM with HL-60(TB) leukemia; 2.91 µM in the test with UACC-62 melanoma; 2.97 µM in the test with RXF 393 renal; 3.05 µM in the test on SK-MEL-28 melanoma. Besides, the values for the TGI in the test on EKVX NSCLC and in the test with NCI-H460 lung were more than 10 µM and 4.08 µM, respectively.
